This is an account of results in BindingDB's records for doi:10.1021/bi002865v (Pharmacia, 2001).

The structures appear in SMILES notation. Where a SMILES comes first, the peptide text is derived from it. [ ]: non-standard residue; d: D form. sY = N[C@@H](Cc1ccc(OS(=O)(=O)O)cc1)C(=O)O; Nle = CCCC[C@H](N)C(=O)O

For this assay, the target named is T1, Tyrosine-protein phosphatase non-receptor type 1 (Rattus norvegicus, UniProt P20417).
T1 sequence (P20417 whole entry): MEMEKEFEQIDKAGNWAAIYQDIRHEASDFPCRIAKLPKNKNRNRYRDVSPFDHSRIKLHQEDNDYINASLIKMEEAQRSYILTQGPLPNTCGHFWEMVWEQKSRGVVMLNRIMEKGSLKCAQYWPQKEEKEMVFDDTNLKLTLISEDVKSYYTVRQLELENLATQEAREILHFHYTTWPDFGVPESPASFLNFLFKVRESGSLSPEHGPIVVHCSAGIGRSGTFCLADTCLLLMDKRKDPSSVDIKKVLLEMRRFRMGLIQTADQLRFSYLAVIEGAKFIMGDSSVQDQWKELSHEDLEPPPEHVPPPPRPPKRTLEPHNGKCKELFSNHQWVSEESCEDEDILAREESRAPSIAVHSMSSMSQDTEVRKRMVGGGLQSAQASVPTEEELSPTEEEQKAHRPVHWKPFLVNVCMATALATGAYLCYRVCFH
Nature of the assay: PTP1B Inhibition Assay. The following applies: pH 7.2; 22 °C. An excerpt: Hydrolysis of substrate p-nitrophenyl phosphate was monitored on a 96-well microplate reader. Concentrations of PTP1B inhibitors that resulted in 50% reduction of enzyme activity (IC50) were derived by fitting reaction rates obtained in the presence and absence of compounds.
One may read the Ki as a dissociation constant, usually derived from enzyme kinetics or from competition with a known ligand. Read a high Ki as a looser hold on the target. `CCCC[C@H](NC(=O)[C@H](Cc1ccc(OS(=O)(=O)O)cc1)NC(=O)[C@H](CC(=O)O)NC(C)=O)C(N)=O` (Ac-Asp-[sY]-[Nle]-NH2): affinity was put at a Ki of 5 µM. That is a single-digit micromolar value.

`CCCCCNC(=O)[C@H](Cc1ccc(OC(C(=O)O)C(=O)O)cc1)NC(=O)CCC(=O)O` [2-{4-[(2S)-2-(3-formamidopropanoic acid)-2-(pentylcarbamoyl)ethyl]phenoxy}propanedioic acid] returned a Ki of 12 µM.

`CCCCCNC(=O)[C@H](Cc1ccc(OCC(=O)O)c(C(=O)O)c1)NC(=O)[C@H](Cc1ccccc1)NC(=O)Cn1[nH]ncc1=S` [2-(carboxymethoxy)-5-[(2S)-2-(pentylcarbamoyl)-2-[(2S)-3-phenyl-2-[1-(5-sulfanyl-1H-1,2,3-triazol-1-yl)acetamido]propanamido]ethyl]benzoic acid]: the affinity corresponds to a Ki of 0.12 µM.

`CCCCCNC(=O)[C@H](Cc1ccc(OCC(=O)O)c(C(=O)O)c1)NC(=O)CCC(=O)O` [2-(carboxymethoxy)-5-[(2S)-2-(3-formamidopropanoic acid)-2-(pentylcarbamoyl)ethyl]benzoic acid]: the Ki is 2.8 µM.

In turn, `CCCCCNC(=O)[C@H](Cc1ccc(OC(C(=O)O)C(=O)O)cc1)NC(=O)[C@H](Cc1ccccc1)NC(=O)CCC(=O)O` [2-{4-[(2S)-2-[(2S)-2-(3-formamidopropanoic acid)-3-phenylpropanamido]-2-(pentylcarbamoyl)ethyl]phenoxy}propanedioic acid] yielded a Ki of 1.2 µM.

The compound `CCCCCNC(=O)[C@H](Cc1ccc(OS(=O)(=O)O)cc1)NC(=O)CCC(=O)O` [Compound II] displayed a Ki of 30 µM.

Turning to `CCCCCNC(=O)[C@H](Cc1ccc(OCC(=O)OC)c(C(=O)OC)c1)NC(=O)[C@H](Cc1ccccc1)NC(=O)CCC(=O)OC` [methyl 2-(2-methoxy-2-oxoethoxy)-5-[(2S)-2-[(2S)-2-(methyl 3-formamidopropanoate)-3-phenylpropanamido]-2-(pentylcarbamoyl)ethyl]benzoate], the Ki is > 100 µM.
